# Measurements reported in patent publication US20240247080A1, “GLP1/GIP/NPY2 RECEPTOR TRIPLE AGONISTS” (Boehringer Ingelheim International GmbH, priority 2022, published 2024).
# Where two headings read alike, the source gives them in different places. Starred links: 1 amine or outer side, 2 acyl side, 3 side chain; linkers in the order of their positions; H or OH if unused. Non-standard residues stand in square brackets, D forms with d. Groups on a side chain read outwards from the residue. No end group written: not given here. *: point of attachment. C20 diacid = O=C(O)CCCCCCCCCCCCCCCCCCC(=O)*; C18 diacid = O=C(O)CCCCCCCCCCCCCCCCC(=O)*; γGlu = O=C(O)[C@H](CCC(=O)[*:2])N[*:1]; εLys = N[C@@H](CCCCN[*:1])C(=O)[*:2]; AEEA = NCCOCCOCC(=O)O; Aib = CC(C)(N)C(=O)O; Ahx = NCCCCCC(=O)O
# What was measured:
# [1] = target: T1, hGLP1R (Homo sapiens, UniProt P43220); assay: hGLP1R CreLuc reporter gene assay in 0.5% and 100% plasma; assay type: cell-based; details: CreLuc reporter gene assay
# T1 construct: expressed in transfected cells; host or cells: HEK-293 cells carrying a CRE-luciferase reporter gene
# From the text: (§1) Example 1: hGLPR/hGIPR/hNPY2R CreLuc Assay in 0.5% and 100% Plasma
# (§2) CHO and HEK-293 recombinant cell lines express a luciferase reporter gene under control of the cAMP responsive element (CRE). As a second recombinant protein the GLP-1 and NPY2 receptors were expressed in the reporter gene HEK cells, and the GIP receptor was expressed in the reporter gene CHO cells, respectively. Stimulation of these recombinant cells with an agonist leads to an increase of intracellular cAMP levels. In the presence of cAMP, the transcription factor CRE binding protein (CREB) binds to the CRE and to the CREB binding protein (CBP), which leads to transcription of the luciferase reporter gene. Peptides upon serial-dilution in 100% DMSO were transferred into 384-well assay plates with 5 μl pre-dispensed assay buffer (1×HBSS, 20 mM HEPES, pH7.4 supplemented with 0.5% human plasma) using acoustic dispensing on a Labcyte ECHO. Cryo-preserved transgenic reporter gene cells were thawed in assay buffer. 20 μl (10.000 cells/well) were added to the plate with the peptides and incubated for 4 hours at 37° C. in a humidified incubator. Following incubation, assay plates are equilibrated to room temperature, followed by addition of 25 μl of Bright-GIo™ Luciferase reagent, incubation at room temperature for 10 minutes and analysis of luminescence (Envision Reader). Concentration response evaluation of compounds was performed with 8 concentrations of peptides (covering four decades). EC50 values were calculated by non-linear regression using sigmoid concentration-response with variable slope. The same assays were run in the presence of 100% plasma with no additional buffer constituents.
# [2] = target: T2, hGIPR (Homo sapiens, UniProt P48546); assay: hGIPR CreLuc reporter gene assay in 0.5% and 100% plasma; assay type: cell-based; details: CreLuc reporter gene assay
# T2 construct: expressed in transfected cells; host or cells: CHO cells carrying a CRE-luciferase reporter gene
# T2 sequence (P48546 22-466): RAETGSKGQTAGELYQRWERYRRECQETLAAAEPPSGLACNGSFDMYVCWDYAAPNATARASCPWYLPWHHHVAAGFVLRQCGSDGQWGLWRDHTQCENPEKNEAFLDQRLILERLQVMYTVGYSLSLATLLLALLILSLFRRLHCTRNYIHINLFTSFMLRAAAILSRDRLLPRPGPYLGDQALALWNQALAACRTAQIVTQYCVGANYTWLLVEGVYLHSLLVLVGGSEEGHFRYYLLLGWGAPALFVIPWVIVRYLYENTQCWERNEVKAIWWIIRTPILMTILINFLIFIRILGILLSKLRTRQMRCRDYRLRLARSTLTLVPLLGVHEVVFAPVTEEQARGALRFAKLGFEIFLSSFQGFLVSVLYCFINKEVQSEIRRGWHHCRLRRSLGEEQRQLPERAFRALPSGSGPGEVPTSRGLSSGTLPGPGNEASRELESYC
# From the text: as §1, §2
# [3] = 0.5% human plasma, read-out: hGLP1R 0.5% hP
# [4] = 0.5% human plasma, read-out: hGIPR 0.5% hP
# [5] = 100% human plasma, read-out: hGIPR 100% hP
# [6] = 100% human plasma, read-out: hGLP1R 100% hP
# T1 sequence (P43220 24-463): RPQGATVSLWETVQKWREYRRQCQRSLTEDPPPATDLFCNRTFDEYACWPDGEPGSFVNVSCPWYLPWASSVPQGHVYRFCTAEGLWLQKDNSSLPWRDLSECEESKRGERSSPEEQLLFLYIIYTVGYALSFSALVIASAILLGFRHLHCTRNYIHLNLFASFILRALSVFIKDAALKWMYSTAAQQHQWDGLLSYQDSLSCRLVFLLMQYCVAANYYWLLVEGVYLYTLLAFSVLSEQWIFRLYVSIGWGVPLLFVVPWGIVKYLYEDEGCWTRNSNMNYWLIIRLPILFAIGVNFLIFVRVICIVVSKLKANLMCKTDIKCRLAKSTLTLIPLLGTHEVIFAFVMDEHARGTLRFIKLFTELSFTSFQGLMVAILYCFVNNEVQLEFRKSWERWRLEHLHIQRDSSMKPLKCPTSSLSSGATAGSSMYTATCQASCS
Substance,"EC50 [1, 3] [nM]","EC50 [2, 4] [nM]","EC50 [2, 5] [nM]","EC50 [1, 6] [nM]"
"H-Y[Aib]EGTFTSDYSI[Aib]LEKQAQ[Aib]AFVQWLIK([AEEA-AEEA-γGlu-γGlu-γGlu-γGlu-γGlu-C20 diacid])GGPSEGASLRHYYNWLTRQRY-NH2 [Compound 228, Y-Aib-E-G-T-F-T-S-D-Y-S-I-Aib-L-E-K-Q-A-Q-Aib-A-F-V-Q-W-L-I-K(1,3)-GGPSEGASLRHYYNWLTRQRY-NH2.C20DA-gGlu-gGlu-gGlu-gGlu-gGlu-OEG-OEG(1,2)]",0.12,0.23,1.52,
"H-Y[Aib]EGTFTSDYSI[Aib]LEKQAQ[Aib]AFVEWLIK([εLys-γGlu-γGlu-γGlu-γGlu-γGlu-γGlu-C20 diacid])GGPSSGASLRHYYNLLTRQRY-NH2 [Compound 195, Y-Aib-E-G-T-F-T-S-D-Y-S-I-Aib-L-E-K-Q-A-Q-Aib-A-F-V-E-W-L-I-K(1,3)-GGPSSGASLRHYYNLLTRQRY-NH2.C20DA-gGlu-gGlu-gGlu-gGlu-gGlu-gGlu-eLys(1,2)]",0.13,0.25,1.42,
"H-Y[Aib]EGTFTSDYSI[Aib]LEKQAQ[Aib]AFVQWLIK([AEEA-AEEA-γGlu-γGlu-γGlu-γGlu-C20 diacid])GGPSEGASLRHYYNWLTRQRY-NH2 [Compound 269, Y-Aib-E-G-T-F-T-S-D-Y-S-I-Aib-L-E-K-Q-A-Q-Aib-A-F-V-Q-W-L-I-K(1,3)-GGPSEGASLRHYYNWLTRQRY-NH2.C20DA-gGlu-gGlu-gGlu-gGlu-OEG-OEG(1,2)]",0.14,0.46,1.23,3.86
"H-Y[Aib]EGTFTSDYSI[Aib]LEKQAQ[Aib]AFVQWLIK([εLys-γGlu-γGlu-γGlu-γGlu-γGlu-γGlu-C20 diacid])GGPSSGVSLRHYYNWLTRQRY-NH2 [Compound 47, Y-Aib-E-G-T-F-T-S-D-Y-S-I-Aib-L-E-K-Q-A-Q-Aib-A-F-V-Q-W-L-I-K(1,3)-GGPSSGVSLRHYYNWLTRQRY-NH2.C20DA-gGlu-gGlu-gGlu-gGlu-gGlu-gGlu-eLys(1,2)]",0.07,0.25,0.73,
"H-Y[Aib]EGTFTSDYSI[Aib]LEKQAQ[Aib]AFVQWLIK([Ahx-γGlu-γGlu-γGlu-γGlu-γGlu-C18 diacid])GGPEEGASLRHYYNWLTRQRY-NH2 [Compound 162, Y-Aib-E-G-T-F-T-S-D-Y-S-I-Aib-L-E-K-Q-A-Q-Aib-A-F-V-Q-W-L-I-K(1,3)-GGPEEGASLRHYYNWLTRQRY-NH2.C18DA-gGlu-gGlu-gGlu-gGlu-gGlu-AHX(1,2)]",0.2,0.25,1.61,
"H-Y[Aib]EGTFTSDYSI[Aib]LEKQAQ[Aib]EFVQWLIK([AEEA-AEEA-Glu-Glu-Glu-C18 diacid])GGPSEGASLRHYYNWLTRQRY-NH2 [Compound 157, Y-Aib-E-G-T-F-T-S-D-Y-S-I-Aib-L-E-K-Q-A-Q-Aib-E-F-V-Q-W-L-I-K(1,3)-GGPSEGASLRHYYNWLTRQRY-NH2.C18DA-E-E-E-OEG-OEG(1,2)]",0.35,0.38,1.58,
"H-Y[Aib]EGTFTSDYSI[Aib]LEKEKQ[Aib]AFVEWLIK([εLys-γGlu-γGlu-γGlu-γGlu-γGlu-γGlu-C20 diacid])GGPSSGASLRHYYNWLTRQRY-NH2 [Compound 69, Y-Aib-E-G-T-F-T-S-D-Y-S-I-Aib-L-E-K-E-K-Q-Aib-A-F-V-E-W-L-I-K(1,3)-GGPSSGASLRHYYNWLTRQRY-NH2.C20DA-gGlu-gGlu-gGlu-gGlu-gGlu-gGlu-eLys(1,2)]",1.48,0.8,,
"Y[Aib]EGTFTSDYSI[Aib]LEKQAQ[Aib]EFVQWLIK([AEEA-AEEA-γGlu-γGlu-γGlu-C18 diacid])GGPSEGASLRHYYNWLTRQRY-NH2 [Compound 160, Y-Aib-E-G-T-F-T-S-D-Y-S-I-Aib-L-E-K-Q-A-Q-Aib-E-F-V-Q-W-L-I-K(1,3)-GGPSEGASLRHYYNWLTRQRY-NH2.C18DA-gGlu-gGlu-gGlu-OEG-OEG(1,2)]",0.3,0.33,0.91,

# Continued by falling EC50 [1, 3], values first:
"EC50 [1, 3] [nM]","EC50 [2, 4] [nM]","EC50 [2, 5] [nM]","EC50 [1, 6] [nM]",Substance
0.35,0.23,2.35,,"H-Y[Aib]EGTFTSDYSI[Aib]LEKQAQ[Aib]AFVEWLIK([Ahx-γGlu-γGlu-γGlu-γGlu-γGlu-C18 diacid])GGPSEGASLRHYYNWLTRQRY-NH2 [Compound 304, Y-Aib-E-G-T-F-T-S-D-Y-S-I-Aib-L-E-K-Q-A-Q-Aib-A-F-V-E-W-L-I-K(1,3)-GGPSEGASLRHYYNWLTRQRY-NH2.C18DA-gGlu-gGlu-gGlu-gGlu-gGlu-AHX(1,2)]"
0.3,1.03,,,"H-Y[Aib]EGTFTSDYSI[Aib]LEDQAQ[Aib]AFVEWLIK([εLys-γGlu-γGlu-γGlu-γGlu-γGlu-γGlu-C20 diacid])GGPSSGASLRHYYNWLTRQRY-NH2 [Compound 90, Y-Aib-E-G-T-F-T-S-D-Y-S-I-Aib-L-E-D-Q-A-Q-Aib-A-F-V-E-W-L-I-K(1,3)-GGPSSGASLRHYYNWLTRQRY-NH2.C20DA-gGlu-gGlu-gGlu-gGlu-gGlu-gGlu-eLys(1,2)]"
0.24,0.11,1.07,,"H-Y[Aib]EGTFTSDYSI[Aib]LEKQAQ[Aib]AFVEYLIK([εLys-γGlu-γGlu-γGlu-γGlu-γGlu-γGlu-C20 diacid])GGPSSGASLRHYYNWLTRQRY-NH2 [Compound 135, Y-Aib-E-G-T-F-T-S-D-Y-S-I-Aib-L-E-K-Q-A-Q-Aib-A-F-V-E-Y-L-I-K(1,3)-GGPSSGASLRHYYNWLTRQRY-NH2.C20DA-gGlu-gGlu-gGlu-gGlu-gGlu-gGlu-eLys(1,2)]"
0.14,0.18,1.17,,"H-Y[Aib]EGTFTSDYSI[Aib]LEKQAQ[Aib]AFVQWLIK([AEEA-AEEA-γGlu-γGlu-γGlu-γGlu-C18 diacid])GGPEEPASLRHYYNWLTRQRY-NH2 [Compound 57, Y-Aib-E-G-T-F-T-S-D-Y-S-I-Aib-L-E-K-Q-A-Q-Aib-A-F-V-Q-W-L-I-K(1,3)-GGPEEPASLRHYYNWLTRQRY-NH2.C18DA-gGlu-gGlu-gGlu-gGlu-OEG-OEG(1,2)]"
0.14,0.16,1.23,,"H-Y[Aib]EGTFTSDYSI[Aib]LEEQAQ[Aib]AFVEWLIK([εLys-γGlu-γGlu-γGlu-γGlu-γGlu-C20 diacid])GGPSSGASLRHYYNWLTRQRY-NH2 [Compound 181, Y-Aib-E-G-T-F-T-S-D-Y-S-I-Aib-L-E-E-Q-A-Q-Aib-A-F-V-E-W-L-I-K(1,3)-GGPSSGASLRHYYNWLTRQRY-NH2.C20DA-gGlu-gGlu-gGlu-gGlu-gGlu-eLys(1,2)]"
0.09,0.13,1.61,1.39,"H-Y[Aib]EGTFTSDYSI[Aib]LEEQAQ[Aib]AFVQWLIK([εLys-γGlu-γGlu-γGlu-γGlu-γGlu-C20 diacid])GGPSSGASLRHYYNWLTRQRY-NH2 [Compound 34, Y-Aib-E-G-T-F-T-S-D-Y-S-I-Aib-L-E-E-Q-A-Q-Aib-A-F-V-Q-W-L-I-K(1,3)-GGPSSGASLRHYYNWLTRQRY-NH2.C20DA-gGlu-gGlu-gGlu-gGlu-gGlu-eLys(1,2)]"
